Data on 28 compounds can be found in patent publication US9206164B2, “Pyrazole compounds as CRTH2 antagonists” (Boehringer Ingelheim International GmbH, priority 2011, dated 2015).

Sequence of human CRTH2 receptor (Q9Y5Y4 whole entry): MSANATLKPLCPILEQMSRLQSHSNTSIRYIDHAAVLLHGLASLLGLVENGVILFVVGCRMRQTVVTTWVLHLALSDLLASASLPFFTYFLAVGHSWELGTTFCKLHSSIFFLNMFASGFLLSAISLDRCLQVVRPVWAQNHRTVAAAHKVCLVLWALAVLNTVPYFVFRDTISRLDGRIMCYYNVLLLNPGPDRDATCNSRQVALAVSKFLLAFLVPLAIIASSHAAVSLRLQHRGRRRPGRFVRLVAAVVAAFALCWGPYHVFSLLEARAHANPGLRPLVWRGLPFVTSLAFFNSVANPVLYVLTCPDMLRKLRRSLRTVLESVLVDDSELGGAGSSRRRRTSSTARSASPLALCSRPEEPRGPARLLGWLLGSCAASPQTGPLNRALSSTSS

The experiment has as its target human CRTH2 receptor (Homo sapiens (Human), UniProt Q9Y5Y4). The experiment can be described thus: CRTH2 receptor radioligand binding assay (SPA, [3H]-PGD2 displacement). As to conditions: antagonistic activities of selected compounds. As for the experimental part:
The binding of CRTH2 antagonists is determined using membranes prepared from Chinese hamster ovary cells (CHO-K1 cells) transfected with the human CRTH2 receptor (CHO-K1-hCRTH2 cells, Perkin Elmer, Cat No ES-561-C). To produce cell membranes the CHO-K1-hCRTH2 cells are cultured in suspension in CHO SFMII medium supplemented with 400 μg/ml G418. The cells are harvested by centrifugation at 300 g for 10 min at room temperature. The cell pellet is resuspended in Phosphate Buffer Saline (PBS) including a protease inhibitor mix (Complete, Roche) and adjusted to a concentration of 10E7 cells/ml. The CHO-K1-hCRTH2 cells are disrupted by nitrogen […] to obtain the membrane preparation. Cell debris is removed by centrifugation (500 g at 4° C., 30 min) and the supernatant is transferred into fresh tubes followed by a second centrifugation at 40000 g for 1 h at 4° C. to sediment the membranes. The membranes are suspended in SPA incubation buffer (50 mM Tris HCl, 10 mM MgCl2, 150 mM NaCl, 1 mM EDTA, pH 7.4) without bovine serum albumin, homogenized by passing through a single use needle (Terumo, 23G×1″), and stored in aliquots at −80° C.
The CRTH2 receptor binding assay is performed in a scintillation proximity assay (SPA) format with the radioligand [^3H]-PGD2 (Perkin Elmer, NET616000MC). CHO-K1-hCRTH2 cell membranes are again homogenized by passing through a single use needle (Terumo, 23G×1″) and diluted in SPA incubation buffer in suitable concentrations (0.5-10 μg protein/well). The SPA assay is set up in 96 well microtiter plates (Perkin Elmer, CatNo. 6005040) in SPA incubation buffer with a final volume of 200 μl per well and final concentration of 50 mM Tris-HCl, 10 mM MgCl2, 150 mM NaCl, 1 mM EDTA pH 7.4, 0.1% bovine serum albumin). The SPA assay mixture contains 60 μl of the membrane suspension, 80 μl of Wheat Germ Agglutinin coated PVT beads (GE Healthcare, RPNQ-0001, 0.3 mg/well), 40 μl of [^3H]-PGD2 diluted in SPA buffer to a final concentration of 1 nM (50 000 dpm) and 20 μl of the test compound (dissolved in dimethylsulfoxid). The SPA assay mixture is incubated for 3 h at room temperature. Bound radioactivity is determined with a scintillation counter (Micro Beta Trilux, Wallac).
The binding of [^3H]-PGD2 to CHO-K1-hCRTH2 cell membranes is determined in the absence (total binding, Bo) and presence (non-specific binding, NSB) of unlabelled PGD2 (1 μM, Cayman Chemical, Cat No 12010) or a reference CRTH2 antagonist (10 μM CAY10471, Cayman Chemical, Cat No 10006735).
Determination of the affinity of a test compound is calculated by subtraction of the non-specific binding (NSB) from the total binding (Bo) or the binding in the presence of the test compound (B) at a given compound concentration. The NSB value is set to 100% inhibition. The Bo−NSB value is set to 0% inhibition.
% inhibition values were obtained at a defined compound concentration, e.g. at 1 μM, % inhibition of the test compound was calculated by the formula 100−((B−NSB)*100/(Bo−NSB)). % inhibition values above 100% are founded by assay variance.
By Ki is commonly meant a measure of affinity in units of concentration, obtained from inhibition or displacement. Read a high Ki as weaker binding. `CCc1nn(Cc2ccc(-c3nc4cc(C)ccc4[nH]3)cc2)c(CC)c1CC(=O)O` [Compound 58] yielded a Ki of 1.3 nM. Regarding `Cc1nn(Cc2ccc(-c3nc4cc(Br)cnc4[nH]3)cc2)c(C)c1CC(=O)O` [Compound 38], the affinity, expressed as Ki, was 7.4 nM. Compound `CCc1nn(Cc2ccc(-c3nc4cc(Cl)c(Cl)cc4n3C)cc2)c(CC)c1CC(=O)O` [Compound 35] registered a Ki of 66.7 nM.

`CCc1nn(Cc2ccc(-c3nc4nc(OC)ccc4[nH]3)cc2)c(CC)c1CC(=O)O` [Compound 64]: the Ki stood at 3.1 nM.

The compound `Cc1nn(Cc2ccc(-c3nc4c(F)cccc4[nH]3)cc2F)c(C)c1CC(=O)O` [Compound 99] yielded a Ki of 9.7 nM. On to `CCc1nn(Cc2ccc(-c3nc4nc(OC)ccc4[nH]3)cc2F)c(CC)c1CC(=O)O` [Compound 79], for which the affinity, expressed as Ki, was 1.3 nM. Under `Cc1nn(Cc2ccc(-c3nc4cccnc4[nH]3)cc2F)c(C)c1CC(=O)O` [Compound 107] stands 87.4 nM; under `Cc1nn(Cc2ccc(-c3nc4cccnc4[nH]3)cc2)c(C)c1CC(=O)O` [Compound 31], 118 nM; under `Cc1nn(Cc2ccc(-c3nc4c(C)cncc4[nH]3)cc2)c(C)c1CC(=O)O` [Compound 29], 646 nM. For the compound `Cc1nn(Cc2ccc(-c3nc4cc(C(C)(C)C)ccc4[nH]3)cc2F)c(C)c1CC(=O)O` [Compound 97], the inhibition constant Ki was 0.9 nM. `Cc1nn(Cc2ccc(-c3nc4cc(C(F)(F)F)ccc4[nH]3)cc2F)c(C)c1CC(=O)O` [Compound 111] had a Ki of 2.5 nM.

The compound `CCc1nn(Cc2ccc(-c3nc4c(F)c(F)ccc4[nH]3)cc2F)c(CC)c1CC(=O)O` [Compound 84] showed a Ki of 0.8 nM. In turn, `Cc1nn(Cc2ccc(-c3nc4c(F)cc(F)cc4[nH]3)cc2)c(C)c1CC(=O)O` [Compound 36] had a Ki of 5.6 nM. In turn, `CCc1nn(Cc2ccc(-c3nc4ccncc4[nH]3)cc2)c(CC)c1CC(=O)O` [Compound 61] showed a Ki of 56.4 nM. `Cc1nn(Cc2ccc(-c3cc4ccc(Cl)cc4[nH]3)cc2)c(C)c1CC(=O)O` [Compound 1, (1-[4-(6-Chloro-1H-indol-2-yl)-benzyl]-3,5-dimethyl-1H-pyrazol-4-yl)-acetic Acid] showed a Ki of 0.8 nM. The compound `Cc1nn(Cc2ccc(-c3nc4c(C)cccc4[nH]3)cc2)c(C)c1CC(=O)O` [Compound 63] registered a Ki of 10 nM. Compound `CCc1nn(Cc2ccc(-c3nc4c(Cl)cc(Cl)cc4[nH]3)cc2)c(CC)c1CC(=O)O` [Compound 65] gave a Ki of 0.4 nM. The compound `CCc1nn(Cc2ccc(-c3nc4cccnc4[nH]3)cc2)c(CC)c1CC(=O)O` [Compound 48] came in with a Ki of 12.9 nM.

`Cc1nn(Cc2ccc(-c3nc4ccncc4[nH]3)cc2F)c(C)c1CC(=O)O` [Compound 72] showed a Ki of 636 nM. `Cc1nn(Cc2ccc(-c3cc4ccc(C(F)(F)F)cc4[nH]3)cc2F)c(C)c1CC(=O)O` [Compound 5]: the Ki was determined as 0.5 nM. `Cc1nn(Cc2ccc(-c3cc4cc(Cl)ccc4[nH]3)cc2)c(C)c1CC(=O)O` [Compound 3]: affinity was put at a Ki of 4.2 nM. Consider `CCc1nn(Cc2ccc(-c3nc4cc(Br)ccc4[nH]3)cc2F)c(CC)c1CC(=O)O` [Compound 87], for which the Ki was determined as 0.4 nM.

Take `CCc1nn(Cc2ccc(-c3nc4cc(C#N)ccc4[nH]3)cc2F)c(CC)c1CC(=O)O` [Compound 81]: the affinity corresponds to a Ki of 2.6 nM. As for `Cc1nn(Cc2ccc(-c3nc4ccc(C(F)(F)F)cc4[nH]3)cc2)c(C)c1CC(=O)O` [Compound 21], the inhibitory constant (Ki) was 1.4 nM.

For `CCc1nn(Cc2ccc(-c3nc4cc(OC)ccc4[nH]3)cc2F)c(CC)c1CC(=O)O` [Compound 75], the affinity, expressed as Ki, was 1 nM.

The compound `Cc1cc2nc(-c3ccc(Cn4nc(C)c(CC(=O)O)c4C)cc3)[nH]c2cc1Cl` [Compound 54] gave a Ki of 1.1 nM. `COc1ccc2[nH]c(-c3ccc(Cn4nc(C)c(CC(=O)O)c4C)c(F)c3)nc2c1` [Compound 96] came in with a Ki of 5.7 nM. The compound `Cc1nn(Cc2ccc(-c3nc4c(F)cccc4[nH]3)cc2)c(C)c1CC(=O)O` [Compound 52] returned a Ki of 8.7 nM.
